Results from patent US10221163B2 (priority 2015, dated 2019).
Read-outs that look alike come from different tables or passages of the source.

What was measured:
[1] = test system: Pseudomonas aeruginosa efflux− (MB9799), IMP-1; type: cell-based; conditions: C, D serine β-lactamase inhibitor closely related to relebactam; for P. aeruginosa expressing IMP-1, efflux − (MB9799) MITC95: concentration restoring susceptibility to imipenem at 2 μg/mL in the presence of a class A; for Concentration of metallo-β-lactamase inhibitor which restores susceptibility of efflux − (MB9799) strain to imipenem: imipenem at 2 μg/mL, in the presence of a class A
Summary of the method: (§1)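 Steps: add fixed imipenem and/or ceftazidime (usually CLSI breakpoint) and fixed AmpC-directed class A/C inhibitor to microbroth MIC wells; titrate MBL inhibitor; record concentration regaining susceptibility for each PAO1-derived strain; divide efflux+ by efflux− value.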

[2] = test system: Pseudomonas aeruginosa MB9798 vs MB9799
Summary of the method: as §1

[3] = test system: Pseudomonas aeruginosa efflux+ (MB9798), IMP-1; type: cell-based; design: Concentration of metallo-β-lactamase inhibitor which restores susceptibility of efflux + (MB9798) strain to imipenem: unit not given here; conditions: C, D serine β-lactamase inhibitor closely related to relebactam; for P. aeruginosa expressing IMP-1, efflux + (MB9798) MITC95: concentration restoring susceptibility to imipenem at 2 μg/mL in the presence of a class A; for Concentration of metallo-β-lactamase inhibitor which restores susceptibility of efflux + (MB9798) strain to imipenem: imipenem at 2 μg/mL, in the presence of a class A
Summary of the method: as §1

IMP-1 = IMP-1 (Serratia marcescens, UniProt P52699); assay: biochemical; type: biochemical; conditions: fluorescence assay, CCF2-FA substrate, 2 pM enzyme, 2 hours at 25° C.; read-out: IMP-1 IC50
Summary of the method: (§2)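 Fluorescence assay, CCF2-FA substrate (cephalosporin core linking 7-hydroxycoumarin to fluorescein); inhibitor + MBL + substrate, 2 h, 25° C. IC50 by 4-parameter fit, semi-log plot.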

NDM-1 = NDM-1 (Klebsiella pneumoniae, UniProt C7C422); assay: biochemical; type: biochemical; conditions: fluorescence assay, CCF2-FA substrate, 1 pM enzyme, 2 hours at 25° C.; read-out: NDM-1 IC50
Summary of the method: as §2

VIM-1 = VIM-1 (Pseudomonas aeruginosa (strain ATCC 15692 / DSM 22644 / CIP 104116 / JCM 14847 / LMG 12228 / 1C / PRS 101 / PAO1), UniProt A0A0F7KYQ8); assay: biochemical; conditions: CCF2-FA substrate, 30 pM enzyme, 2 hours at 25° C.
Summary of the method: as §2

[4] = test system: Klebsiella pneumoniae expressing VIM-1 (IHMA599644); type: cell-based; conditions: for Klebsiella pneumoniae expressing VIM-1 (IHMA599644) MITC95: with imipenem 1 μg/ml, 95% inhibition of bacterial growth; for Klebsiella pneumoniae MITC95: VIM-1 strain IHMA599644, with imipenem 1 μg/ml, 95% inhibition of growth
Summary of the method: (§3)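 Imipenem 1 μg/ml + inhibitor; MBL-expressing clinical strains in 1.1×CAMHB, inoculum from saline suspension diluted 1:100; 35° C, 22–24 h; absorbance read-out.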

[5] = test system: Serratia marcescens expressing IMP-1 (CL5741); type: cell-based; conditions: for Serratia marcescens expressing IMP-1 (CL5741) MITC95: with imipenem 1 μg/ml, 95% inhibition of bacterial growth; for Serratia marcescens MITC95: IMP-1 strain CL5741, with imipenem 1 μg/ml, 95% inhibition of growth
Summary of the method: as §3

[6] = test system: Escherichia coli expressing NDM-1 (CLB30005, CLB30016); type: cell-based; conditions: with imipenem 1 μg/ml; for Escherichia coli expressing NDM-1 (CLB30016) MITC95: 95% inhibition of bacterial growth; for Escherichia coli MITC95: NDM-1 strain, 95% inhibition of growth
Summary of the method: as §3

[7] = ratio MITC95 PA_9798/MITC95 PA_9799
[8] = fluorescence assay, read-out: VIM-1 IC50
[9] = fold difference between efflux+ (MB9798) and efflux− (MB9799) strains, imipenem at 2 μg/mL

Sequence of NDM-1 (C7C422 whole entry, looked up, species assumed): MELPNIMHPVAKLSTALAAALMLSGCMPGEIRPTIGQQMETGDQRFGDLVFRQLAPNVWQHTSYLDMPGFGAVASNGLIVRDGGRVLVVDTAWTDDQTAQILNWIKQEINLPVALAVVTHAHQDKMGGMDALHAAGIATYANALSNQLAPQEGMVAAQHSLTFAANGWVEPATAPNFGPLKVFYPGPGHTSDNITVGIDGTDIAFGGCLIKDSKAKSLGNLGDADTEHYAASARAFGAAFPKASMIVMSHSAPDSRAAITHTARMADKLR
Sequence of IMP-1 (P52699 whole entry, looked up, species assumed): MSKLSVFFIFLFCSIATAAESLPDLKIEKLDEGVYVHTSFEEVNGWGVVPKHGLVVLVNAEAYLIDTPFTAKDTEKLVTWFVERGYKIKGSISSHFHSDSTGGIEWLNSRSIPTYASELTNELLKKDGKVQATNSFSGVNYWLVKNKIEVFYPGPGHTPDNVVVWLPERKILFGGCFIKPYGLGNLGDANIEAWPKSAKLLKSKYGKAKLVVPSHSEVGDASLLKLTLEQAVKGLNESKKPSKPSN

Structure (SMILES) | P. aeruginosa expressing IMP-1, efflux − (MB9799) MITC95 [1] | Efflux ratio [2, 7] | P. aeruginosa expressing IMP-1, efflux + (MB9798) MITC95 [3] | IC50 (IMP-1) | IC50 (NDM-1) | IC50 (VIM-1; VIM-1 IC50, fluorescence assay) | Klebsiella pneumoniae expressing VIM-1 (IHMA599644) MITC95 [4] | Serratia marcescens expressing IMP-1 (CL5741) MITC95 [5] | Escherichia coli expressing NDM-1 (CLB30016) MITC95 [6] | IC50 (VIM-1; [8]) | Concentration of metallo-β-lactamase inhibitor which restores susceptibility of efflux − (MB9799) strain to imipenem [1] | Efflux ratio [2, 9] | Concentration of metallo-β-lactamase inhibitor which restores susceptibility of efflux + (MB9798) strain to imipenem [3] | Klebsiella pneumoniae MITC95 [4] | Serratia marcescens MITC95 [5] | Escherichia coli MITC95 [6] | IC50 (VIM-1; read-out: VIM-1 IC50, fluorescence assay)
Nc1nc2c(-c3ccc(S(=O)(=O)N[C@H]4CNC[C@H]4O)c(S(N)(=O)=O)c3-c3nnn[nH]3)cccc2[nH]1 [Example 168, 4-(2-amino-1H-benzo[d]imidazol-4-yl)-N^1-((3S,4R)-4-hydroxypyrrolidin-3-yl)-3-(1H-tetrazol-5-yl)benzene-1,2-disulfonamide] | 0.543 µM | 0.70 | 0.3828 µM | 544 pM | 51.5 pM | 160 pM | 0.8906 µM | 0.668 µM | 0.375 µM |  |  |  |  |  |  |  | 
CN(C1CCCNC1)S(=O)(=O)c1ccc(-c2cccc3sc(N)nc23)c(-c2nnn[nH]2)c1S(N)(=O)=O (stereo not drawn) [Example 64, 4-(2-amino-1,3-benzothiazol-4-yl)-N1-methyl-N1-piperidin-3-yl-3-(1H-tetrazol-5-yl)benzene-1,2-disulfonamide] | 1.563 µM | 2.00 | 3.125 µM | 2160 pM | 1490 pM | 5690 pM | 12.5 µM | 1.563 µM | 12.5 µM |  |  |  |  |  |  |  | 
NC[C@H](N)CNS(=O)(=O)c1ccc(-c2cnccc2N)c(-c2nn[nH]n2)c1S(N)(=O)=O [Example 223, (S)-4-(4-aminopyridin-3-yl)-N1-(2,3-diaminopropyl)-3-(2H-tetrazol-5-yl)benzene-1,2-disulfonamide] | 0.7813 µM | 2.00 | 1.563 µM | 4510 pM | 1750 pM | 1410 pM | 0.3906 µM | 0.3906 µM | 0.09766 µM |  |  |  |  |  |  |  | 
NC[C@H](N)CNS(=O)(=O)c1ccc(-c2cccnc2N)c(-c2nn[nH]n2)c1S(N)(=O)=O [Example 213, (S)-4-(2-aminopyridin-3-yl)-N1-(2,3-diaminopropyl)-3-(2H-tetrazol-5-yl)benzene-1,2-disulfonamide] | 1.563 µM | 2.00 | 3.125 µM | 1540 pM | 75.9 pM |  | 1.563 µM | 0.7813 µM | 0.3906 µM | 113 pM |  |  |  |  |  |  | 
Nc1nc2c(-c3ccc(S(=O)(=O)NCC(=O)O)c(S(N)(=O)=O)c3-c3nn[nH]n3)cccc2s1 [Example 153, ((4-(2-aminobenzo[d]thiazol-4-yl)-2-sulfamoyl-3-(2H-tetrazol-5-yl)phenyl)sulfonyl)glycine] | 12.5 µM | 1.00 | 12.5 µM | 704 pM | 280 pM | 1050 pM | 100 µM | 25 µM | 50 µM |  |  |  |  |  |  |  | 
NCCCNS(=O)(=O)c1ccc(-c2cccc3[nH]cnc23)c(-c2nn[nH]n2)c1S(N)(=O)=O [Example 198, N^1-(3-aminopropyl)-4-(1H-benzo[d]imidazol-4-yl)-3-(2H-tetrazol-5-yl)benzene-1,2-disulfonamide] | 0.7813 µM | 1.00 | 0.7813 µM | 293 pM | 59.2 pM |  | 2.344 µM | 1.172 µM | 1.172 µM | 135 pM |  |  |  |  |  |  | 
Nc1nc2c(-c3ccc(S(N)(=O)=O)c(S(N)(=O)=O)c3-c3nn[nH]n3)cccc2o1 [Example 4, 4-(2-aminobenzo[d]oxazol-4-yl)-3-(2H-tetrazol-5-yl)benzene-1,2-disulfonamide] | 1.563 µM | 1.00 | 1.563 µM | 354 pM | 136 pM |  | 3.125 µM | 1.563 µM | 3.125 µM | 237 pM |  |  |  |  |  |  | 
NS(=O)(=O)c1c(S(=O)(=O)NC[C@H]2CNCCN2)ccc(-c2cccc3[nH]cnc23)c1-c1nn[nH]n1 [Example 481, (R)-4-(1H-benzo[d]imidazol-4-yl)-N1-(piperazin-2-ylmethyl)-3-(1H-tetrazol-5-yl)benzene-1,2-disulfonamide] |  |  |  | 250 pM | 45.5 pM |  |  |  |  | 119 pM | 1.563 | 1.00 | 1.563 | 3.125 µM | 1.563 µM | 3.125 µM | 
Nc1ccc(-c2ccc(S(=O)(=O)NC3CC(N)C3)c(S(N)(=O)=O)c2-c2nn[nH]n2)cn1 [Example 483, N1-((1R,3R)-3-aminocyclobutyl)-4-(6-aminopyridin-3-yl)-3-(2H-tetrazol-5-yl)benzene-1,2-disulfonamide] |  |  |  | 330 pM | 92.7 pM |  |  |  |  |  | 0.7813 | 1.00 | 0.7813 | 1.563 µM | 0.7813 µM | 1.758 µM | 115 pM
CN(C1CNC1)S(=O)(=O)c1ccc(-c2cccc3[nH]c(N)nc23)c(-c2nn[nH]n2)c1S(N)(=O)=O [Example 255, 4-(2-amino-1H-benzo[d]imidazol-4-yl)-N1-(azetidin-3-yl)-N1-methyl-3-(2H-tetrazol-5-yl)benzene-1,2-disulfonamide] | 0.7813 µM | 2.00 | 1.563 µM | 2840 pM | 113 pM |  |  |  |  | 936 pM |  |  |  | 0.7813 µM | 0.7813 µM | 0.3906 µM | 
